# Data from PubChem BioAssay AID192 (DTP/NCI, 2004).
# Several values for one entry are separate records, joined by “and”; a condition that tells them apart may be missing. Identical values can stand only once. Toxic doses and inconclusive results are not listed.
# Tested on: BDF1 mice, B16 melanoma ip, median survival T/C
# Assay: NCI In Vivo Anticancer Drug Screen. Data for tumor model B16 Melanoma (intraperitoneal) in B6D2F1 (BDF1) mice
# Conditions: endpoint: median survival time, higher = longer survival
# Summary of the method: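 Read-out: survival or tumor size, given as treated/control ratio. Controls received vehicle only; animals bore transplantable tumors.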
smiles,measurement,setting,value
CC[C@]1(O)C[C@H]2CN(CCc3c([nH]c4ccccc34)[C@@](C(=O)OC)(c3cc4c(cc3OC)N(C=O)[C@H]3[C@@](O)(C(=O)OC)[C@H](OC(C)=O)[C@]5(CC)C=CCN6CC[C@]43[C@@H]65)C2)C1,T/C,"dose: 0.06 mg/kg/injection, schedule: Q01DX009 (ip), vehicle: saline",154 % of control
same,T/C,"dose: 0.06 mg/kg/injection, schedule: Q01DX009 (ip), vehicle: water",168 % of control
same,T/C,"dose: 0.06 mg/kg/injection, schedule: Q01DX017 (ip), vehicle: saline",156 % of control
same,T/C,"dose: 0.08 mg/kg/injection, schedule: Q01DX009 (ip), vehicle: water",123 % of control
same,T/C,"dose: 0.12 mg/kg/injection, schedule: Q04DX003 (ip), vehicle: saline",123 % of control
same,T/C,"dose: 0.13 mg/kg/injection, schedule: Q01DX017 (ip), vehicle: saline",181 % of control
same,T/C,"dose: 0.13 mg/kg/injection, schedule: Q04DX003 (ip), vehicle: saline",110 % of control
same,T/C,"dose: 0.18 mg/kg/injection, schedule: Q01DX005 (ip), vehicle: saline",121 % of control
same,T/C,"dose: 0.2 mg/kg/injection, schedule: Q01DX009 (ip), vehicle: saline",152 % of control and 171 % of control
same,T/C,"dose: 0.23 mg/kg/injection, schedule: Q04DX003 (ip), vehicle: water",119 % of control and 121 % of control
same,T/C,"dose: 0.25 mg/kg/injection, schedule: Q01DX009 (ip), vehicle: water",176 % of control and 189 % of control
same,T/C,"dose: 0.25 mg/kg/injection, schedule: Q01DX017 (ip), vehicle: saline",197 % of control
same,T/C,"dose: 0.3 mg/kg/injection, schedule: Q01DX005 (ip), vehicle: saline",119 % of control
same,T/C,"dose: 0.36 mg/kg/injection, schedule: Q01DX009 (ip), vehicle: water",163 % of control
same,T/C,"dose: 0.36 mg/kg/injection, schedule: Q04DX003 (ip), vehicle: saline",114 % of control
same,T/C,"dose: 0.39 mg/kg/injection, schedule: Q04DX003 (ip), vehicle: saline",124 % of control
same,T/C,"dose: 0.39 mg/kg/injection, schedule: Q04DX003 (ip), vehicle: water",119 % of control
same,T/C,"dose: 0.4 mg/kg/injection, schedule: Q01DX009 (ip), vehicle: saline",178 % of control
same,T/C,"dose: 0.5 mg/kg/injection, schedule: Q01DX001 (ip), vehicle: saline",120 % of control
same,T/C,"dose: 0.5 mg/kg/injection, schedule: Q01DX009 (ip), vehicle: water",155 % of control and 163 % of control and 192 % of control
same,T/C,"dose: 0.5 mg/kg/injection, schedule: Q04DX003 (ip), vehicle: saline",154 % of control
same,T/C,"dose: 0.5 mg/kg/injection, schedule: Q04DX005 (ip), vehicle: saline",163 % of control
same,T/C,"dose: 0.54 mg/kg/injection, schedule: Q04DX003 (ip), vehicle: saline",157 % of control
same,T/C,"dose: 0.6 mg/kg/injection, schedule: Q04DX003 (ip), vehicle: saline",150 % of control and 152 % of control and 176 % of control
same,T/C,"dose: 0.65 mg/kg/injection, schedule: Q01DX001 (ip), vehicle: water",118 % of control and 120 % of control
same,T/C,"dose: 0.65 mg/kg/injection, schedule: Q04DX003 (ip), vehicle: saline",102 % of control
same,T/C,"dose: 0.75 mg/kg/injection, schedule: Q04DX003 (ip), vehicle: saline",152 % of control
same,T/C,"dose: 0.8 mg/kg/injection, schedule: Q04DX003 (ip), vehicle: water",116 % of control
same,T/C,"dose: 1.0 mg/kg/injection, schedule: Q01DX001 (ip), vehicle: saline",120 % of control
same,T/C,"dose: 1.0 mg/kg/injection, schedule: Q04DX005 (ip), vehicle: saline",181 % of control
same,T/C,"dose: 1.08 mg/kg/injection, schedule: Q01DX001 (ip), vehicle: water",124 % of control
same,T/C,"dose: 1.08 mg/kg/injection, schedule: Q04DX003 (ip), vehicle: saline",156 % of control
same,T/C,"dose: 1.2 mg/kg/injection, schedule: Q04DX003 (ip), vehicle: saline",160 % of control and 198 % of control
same,T/C,"dose: 1.5 mg/kg/injection, schedule: Q04DX003 (ip), vehicle: saline",150 % of control and 158 % of control
same,T/C,"dose: 1.67 mg/kg/injection, schedule: Q04DX003 (ip), vehicle: saline",54 % of control
same,T/C,"dose: 1.8 mg/kg/injection, schedule: Q01DX001 (ip), vehicle: water",122 % of control and 124 % of control
same,T/C,"dose: 1.8 mg/kg/injection, schedule: Q04DX003 (ip), vehicle: saline",159 % of control
same,T/C,"dose: 1.8 mg/kg/injection, schedule: Q04DX003 (ip), vehicle: water",151 % of control
same,T/C,"dose: 2.0 mg/kg/injection, schedule: Q04DX003 (ip), vehicle: saline",173 % of control and 180 % of control
same,T/C,"dose: 3.0 mg/kg/injection, schedule: Q04DX003 (ip), vehicle: saline",67 % of control
same,T/C,"dose: 15.63 micrograms/kg/injection, schedule: Q01DX009 (ip), vehicle: water",110 % of control
same,T/C,"dose: 62.5 micrograms/kg/injection, schedule: Q01DX009 (ip), vehicle: water",150 % of control
same,T/C,"dose: 78.0 micrograms/kg/injection, schedule: Q01DX009 (ip), vehicle: saline",165 % of control
same,T/C,"dose: 78.0 micrograms/kg/injection, schedule: Q01DX009 (ip), vehicle: water",123 % of control
same,T/C,"dose: 125.0 micrograms/kg/injection, schedule: Q01DX009 (ip), vehicle: water",159 % of control
same,T/C,"dose: 130.0 micrograms/kg/injection, schedule: Q01DX009 (ip), vehicle: saline",157 % of control
same,T/C,"dose: 216.0 micrograms/kg/injection, schedule: Q01DX009 (ip), vehicle: saline",183 % of control
same,T/C,"dose: 216.0 micrograms/kg/injection, schedule: Q04DX003 (ip), vehicle: saline",123 % of control
same,T/C,"dose: 250.0 micrograms/kg/injection, schedule: Q01DX009 (ip), vehicle: water",175 % of control
same,T/C,"dose: 360.0 micrograms/kg/injection, schedule: Q01DX009 (ip), vehicle: saline",160 % of control
same,T/C,"dose: 389.0 micrograms/kg/injection, schedule: Q04DX003 (ip), vehicle: saline",158 % of control
same,T/C,"dose: 600.0 micrograms/kg/injection, schedule: Q04DX003 (ip), vehicle: saline",155 % of control
same,T/C,"dose: 648.0 micrograms/kg/injection, schedule: Q04DX003 (ip), vehicle: saline",153 % of control
same,T/C,"dose: 1000.0 micrograms/kg/injection, schedule: Q04DX003 (ip), vehicle: saline",152 % of control and 166 % of control
same,T/C,"dose: 1080.0 micrograms/kg/injection, schedule: Q04DX003 (ip), vehicle: saline",157 % of control
same,T/C,"dose: 1670.0 micrograms/kg/injection, schedule: Q04DX003 (ip), vehicle: saline",179 % of control
same,T/C,"dose: 1800.0 micrograms/kg/injection, schedule: Q04DX003 (ip), vehicle: saline",174 % of control
O=C1CCCC2C1C1(O)CCC2(O)c2cccc(O)c21 (stereo unspecified),T/C,"dose: 1.56 mg/kg/injection, schedule: Q01DX009 (ip), vehicle: saline",90 % of control
same,T/C,"dose: 3.12 mg/kg/injection, schedule: Q01DX009 (ip), vehicle: saline",95 % of control
same,T/C,"dose: 3.12 mg/kg/injection, schedule: Q04DX003 (ip), vehicle: saline",93 % of control
same,T/C,"dose: 6.25 mg/kg/injection, schedule: Q01DX009 (ip), vehicle: saline",93 % of control
same,T/C,"dose: 6.25 mg/kg/injection, schedule: Q04DX003 (ip), vehicle: saline",91 % of control
same,T/C,"dose: 12.5 mg/kg/injection, schedule: Q01DX009 (ip), vehicle: Klucel (hydroxypropylcellulose) (HPC)",95 % of control
same,T/C,"dose: 12.5 mg/kg/injection, schedule: Q04DX003 (ip), vehicle: saline",91 % of control
same,T/C,"dose: 18.0 mg/kg/injection, schedule: Q04DX003 (ip), vehicle: saline",105 % of control
same,T/C,"dose: 28.0 mg/kg/injection, schedule: Q04DX003 (ip), vehicle: saline",103 % of control
